Assay results published in patent US20150218172A1, “Pyrrolo[2,3-D]Pyrimidine Tropomyosin-Related Kinase Inhibitors” (PFIZER LIMITED, priority 2012, published 2015).

Molecular target: T1, TrkA (Homo sapiens, UniProt P04629)
T1 construct: aa 441-796; His; purchased Invitrogen PV3144
Assay: Isolated TRK enzyme assay (HTRF KinEASE-TK kit), PV3144 TrkA enzyme assay
Assay type: biochemical
Conditions: PV3144 TrkA enzyme assay, recombinant His-tagged cytoplasmic domain aa 441-796, 4 nM enzyme, 40 uM ATP; arithmetic mean where more than one reading; read-out: Trka enzyme (IC50)
Experimental: Isolated TRK Enzyme assays use the HTRF KinEASE-TK kit (Cisbio Cat#62TK0PEJ) with recombinant His-tagged cytoplasmic domains of each TRK receptor sourced from Invitrogen (see table below). This activity-assay measures the phosphorylation of tyrosine residues within a substrate from the HTRF kit which has been validated by Cisbio for a variety of tyrosine kinases including the TRK receptors.
0.5 mM stock solutions of test compounds are prepared and serially diluted in 100% DMSO. A standard curve using the compound of Example 135 disclosed in WO2005/116035 of 150 uM is also prepared on each test plate. High percentage effect (HPE) is defined by 150 uM (using the compound of Example 135 as disclosed in WO2005/116035) and 0% effect (ZPE) is defined by 100% DMSO. Greiner low volume black plates containing 0.2 ul of serially diluted compound, standard and HPE/ZPE are created using the Bravo nanolitre dispenser.
1X enzyme buffer is prepared from 5X Enzymatic Buffer from the Cisbio KinEASE TK kit using MilliQ water. The buffer is then supplemented with 10 mM MgCl and 2 mM DTT (both from Sigma). In the case of TRKB, the buffer is also supplemented with 125 nM Supplement Enzymatic Buffer (SEB) from the Cisbio kit.
2X FAC of enzyme and 2X FAC ATP diluted in 1X complete enzyme buffer is incubated at room temperature for 20 minutes to preactivate the enzyme. Following this preactivation step, 5 ul/well of enzyme+ATP mix is added using a Multidrop Micro to the assay plate, spotted with 0.2 ul 100% DMSO compound. This is left for 20 mins at room temperature before adding 5 ul of 2 uM TK-substrate-Biotin (from the Cisbio kit) diluted in 1X enzyme buffer (1 uM FAC) using the Multidrop Micro. The reaction is incubated at room temperature for the optimized assay reaction time (see table). The reaction is stopped by adding 10 ul/well HTRF Detection Buffer containing 0.25 uM Streptavidin-XL665 (0.125 uM FAC) and 1:200 TK Antibody-Cryptate using a Multidrop.
After the Detection Reagent addition, plates are covered and incubated at room temperature for 60 minutes. HTRF signal is read using an Envision reader, measured as a ratio of emissions at two different wavelengths, 620 nm and 665 nm. […] Test compound data are expressed as percentage inhibition defined by HPE and ZPE values for each plate. Percentage inhibition in the presence of test compound is plotted against compound concentration on a log scale to determine an IC50 from the resultant sigmoid curve.
Below are TrkA IC50 data generated using the PV3144 TrkA enzyme assay. Where more than one reading was taken, the arithmetic mean is presented.

T1 sequence (P04629 441-796): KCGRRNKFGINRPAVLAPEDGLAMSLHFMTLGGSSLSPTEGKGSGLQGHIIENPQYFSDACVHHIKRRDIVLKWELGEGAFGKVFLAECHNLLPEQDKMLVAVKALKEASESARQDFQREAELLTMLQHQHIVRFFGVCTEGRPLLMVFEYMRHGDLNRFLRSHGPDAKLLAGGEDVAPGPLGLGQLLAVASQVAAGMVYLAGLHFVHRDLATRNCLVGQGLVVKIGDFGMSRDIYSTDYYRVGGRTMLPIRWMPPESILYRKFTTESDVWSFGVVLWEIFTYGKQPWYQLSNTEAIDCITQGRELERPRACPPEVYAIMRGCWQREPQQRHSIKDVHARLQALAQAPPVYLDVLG

IC50 [µM]	Structure (SMILES)
0.0595	C[C@H](CO)n1cc(C(=O)c2cc(NC(=O)Cc3ccc(C(F)(F)F)cc3)ccn2)c2cncnc21 [Example 22, N-[2-({7-[(2R)-1-hydroxypropan-2-yl]-7H-pyrrolo[2,3-d]pyrimidin-5-yl}carbonyl)pyridin-4-yl]-2-[4-(trifluoromethyl)phenyl]acetamide]
0.0791	C[C@H](CO)n1cc(C(=O)c2cc(NC(=O)Cc3ccc(C#N)cc3)ccn2)c2cncnc21 [Example 23, 2-(4-cyanophenyl)-N-[2-({7-[(2R)-1-hydroxypropan-2-yl]-7H-pyrrolo[2,3-d]pyrimidin-5-yl}carbonyl)pyridin-4-yl]acetamide]
0.0598	C[C@@H](CO)n1cc(C(=O)c2cc(NC(=O)Cc3cccc(C(F)(F)F)c3)ccn2)c2cncnc21 [Example 24, N-[2-({7-[(2S)-1-hydroxypropan-2-yl]-7H-pyrrolo[2,3-d]pyrimidin-5-yl}carbonyl)pyridin-4-yl]-2-[3-(trifluoromethyl)phenyl]acetamide]
0.363	C[C@H](CO)n1cc(C(=O)c2cc(NC(=O)Cc3ccc(Cl)cn3)ccn2)c2cncnc21 [Example 25, 2-(5-chloropyridin-2-yl)-N-[2-({7-[(2R)-1-hydroxypropan-2-yl]-7H-pyrrolo[2,3-d]pyrimidin-5-yl}carbonyl)pyridin-4-yl]acetamide]
0.0245	C[C@H](CO)n1cc(C(=O)c2cc(NC(=O)Cn3ccc(C(F)(F)F)n3)ccn2)c2cncnc21 [Example 26, N-[2-({7-[(2R)-1-hydroxypropan-2-yl]-7H-pyrrolo[2,3-d]pyrimidin-5-yl}carbonyl)pyridin-4-yl]-2-[3-(trifluoromethyl)-1H-pyrazol-1-yl]acetamide]
0.139	C[C@H](CO)n1cc(C(=O)c2cc(NC(=O)Cc3ccc(F)cn3)ccn2)c2cncnc21 [Example 27, 2-(5-fluoropyridin-2-yl)-N-[2-({7-[(2R)-1-hydroxypropan-2-yl]-7H-pyrrolo[2,3-d]pyrimidin-5-yl}carbonyl)pyridin-4-yl]acetamide]
0.111	C[C@H](CO)n1cc(C(=O)c2cc(NC(=O)Cc3ccc(Cl)cc3)ccn2)c2cncnc21 [Example 28, 2-(4-chlorophenyl)-N-[2-({7-[(2R)-1-hydroxypropan-2-yl]-7H-pyrrolo[2,3-d]pyrimidin-5-yl}carbonyl)pyridin-4-yl]acetamide]
0.0742	CC(C)c1cn(CC(=O)Nc2ccnc(C(=O)c3cn([C@@H](C)CO)c4ncncc34)c2)nn1 [Example 29, N-[2-({7-[(2S)-1-hydroxypropan-2-yl]-7H-pyrrolo[2,3-d]pyrimidin-5-yl}carbonyl)pyridin-4-yl]-2-[4-(propan-2-yl)-1H-1,2,3-triazol-1-yl]acetamide]
0.0897	C[C@@H](CO)n1cc(C(=O)c2cc(NC(=O)Cn3cc(C4CC4)nn3)ccn2)c2cncnc21 [Example 30, 2-(4-cyclopropyl-1H-1,2,3-triazol-1-yl)-N-[2-({7-[(2S)-1-hydroxypropan-2-yl]-7H-pyrrolo[2,3-d]pyrimidin-5-yl}carbonyl)pyridin-4-yl]acetamide]
0.0781	C[C@@H](CO)n1cc(C(=O)c2cc(NC(=O)Cn3cc(C(F)(F)F)nn3)ccn2)c2cncnc21 [Example 31, N-[2-({7-[(2S)-1-hydroxypropan-2-yl]-7H-pyrrolo[2,3-d]pyrimidin-5-yl}carbonyl)pyridin-4-yl]-2-[4-(trifluoromethyl)-1H-1,2,3-triazol-1-yl]acetamide]
0.0109	Cc1cc(C(F)(F)F)nn1CC(=O)Nc1cc(C(=O)c2cn(C(C)C)c3ncncc23)ccc1C#N [Example 35, N-(2-cyano-5-{[7-(propan-2-yl)-7H-pyrrolo[2,3-d]pyrimidin-5-yl]carbonyl}phenyl)-2-[5-methyl-3-(trifluoromethyl)-1H-pyrazol-1-yl]acetamide]
0.0519	CC(C)(C)n1cc(C(=O)c2cc(NC(=O)Cn3cc(C4CC4)nn3)ccn2)c2cncnc21 [Example 36, N-[2-(7-tert-Butyl-7H-pyrrolo[2,3-d]pyrimidine-5-carbonyl)-pyridin-4-yl]-2-(4-cyclopropyl-[1,2,3]triazol-1-yl)-acetamide]
0.021	CC(C)(C)n1cc(C(=O)c2cc(NC(=O)Cc3ccc(F)cn3)ccn2)c2cncnc21 [Example 37, N-{2-[(7-tert-butyl-7H-pyrrolo[2,3-d]pyrimidin-5-yl)carbonyl]pyridin-4-yl}-2-(5-fluoropyridin-2-yl)acetamide]
0.00961	CC(C)(C)n1cc(C(=O)c2cc(NC(=O)Cc3cccc(S(C)(=O)=O)c3)ccn2)c2cncnc21 [Example 38, N-{2-[(7-tert-butyl-7H-pyrrolo[2,3-d]pyrimidin-5-yl)carbonyl]pyridin-4-yl}-2-[3-(methylsulfonyl)phenyl]acetamide]
0.00527	CC(C)(C)n1cc(C(=O)c2cc(NC(=O)Cc3ccc(Cl)cn3)ccn2)c2cncnc21 [Example 39, N-{2-[(7-tert-butyl-7H-pyrrolo[2,3-d]pyrimidin-5-yl)carbonyl]pyridin-4-yl}-2-(5-chloropyridin-2-yl)acetamide]
0.00838	CC(C)(C)n1cc(C(=O)c2cc(NC(=O)Cn3ccc(C4CC4)n3)ccn2)c2cncnc21 [Example 40, N-{2-[(7-tert-butyl-7H-pyrrolo[2,3-d]pyrimidin-5-yl)carbonyl]pyridin-4-yl}-2-(3-cyclopropyl-1H-pyrazol-1-yl)acetamide]
0.0107	CC(C)(C)n1cc(C(=O)c2cc(NC(=O)Cn3ccc(C(F)(F)F)n3)ccn2)c2cncnc21 [Example 41, N-{2-[(7-tert-butyl-7H-pyrrolo[2,3-d]pyrimidin-5-yl)carbonyl]pyridin-4-yl}-2-[3-(trifluoromethyl)-1H-pyrazol-1-yl]acetamide]
0.0115	CC(C)(C)n1cc(C(=O)c2cc(NC(=O)Cc3ccc(Cl)cc3)ccn2)c2cncnc21 [Example 42, N-{2-[(7-tert-butyl-7H-pyrrolo[2,3-d]pyrimidin-5-yl)carbonyl]pyridin-4-yl}-2-(4-chlorophenyl)acetamide]
0.0157	CC(C)(C)n1cc(C(=O)c2cc(NC(=O)Cc3ccc(F)cc3)ccn2)c2cncnc21 [Example 43, N-{2-[(7-tert-butyl-7H-pyrrolo[2,3-d]pyrimidin-5-yl)carbonyl]pyridin-4-yl}-2-(4-fluorophenyl)acetamide]
0.0102	CC(C)n1cc(C(=O)c2ccnc(NC(=O)Cc3ccc(Cl)cc3)c2)c2cnc(N)nc21 [Example 44, N-[4-(2-Amino-7-isopropyl-7H-pyrrolo[2,3-d]pyrimidine-5-carbonyl)-pyridin-2-yl]-2-(4-chloro-phenyl)-acetamide]
0.0361	CC(C)n1cc(C(=O)c2ccnc(NC(=O)Cc3ccc(C#N)cc3)c2)c2cnc(N)nc21 [Example 45, N-(4-{[2-amino-7-(propan-2-yl)-7H-pyrrolo[2,3-d]pyrimidin-5-yl]carbonyl}pyridin-2-yl)-2-(4-cyanophenyl)acetamide]
0.00469	Cc1cc(C(F)(F)F)nn1CC(=O)Nc1cc(C(=O)c2cn(C(C)C)c3nc(N)ncc23)ccn1 [Example 46, N-(4-{[2-amino-7-(propan-2-yl)-7H-pyrrolo[2,3-d]pyrimidin-5-yl]carbonyl}pyridin-2-yl)-2-[5-methyl-3-(trifluoromethyl)-1H-pyrazol-1-yl]acetamide]
0.00571	CC(C)n1cc(C(=O)c2cc(NC(=O)Cc3ccc(Cl)cc3)ccn2)c2cncnc21 [Example 47, 2-(4-Chloro-phenyl)-N-[2-(7-isopropyl-7H-pyrrolo[2,3-d]pyrimidine-5-carbonyl)-pyridin-4-yl]-acetamide]
0.00729	CC(C)(CO)n1cc(C(=O)c2cc(NC(=O)Cc3ccc(Cl)cc3)ccn2)c2cnc(N)nc21 [Example 48, N-{2-[2-Amino-7-(2-hydroxy-1,1-dimethyl-ethyl)-7H-pyrrolo[2,3-d]pyrimidine-5-carbonyl}-pyridin-4-yl]-2-(4-chloro-phenyl)-acetamide]
0.0097	CC(C)(CO)n1cc(C(=O)c2cc(NC(=O)Cc3cccc(C(F)(F)F)c3)ccn2)c2cnc(N)nc21 [Example 49, N-(2-{[2-amino-7-(1-hydroxy-2-methylpropan-2-yl)-7H-pyrrolo[2,3-d]pyrimidin-5-yl]carbonyl}pyridin-4-yl)-2-[3-(trifluoromethyl)phenyl]acetamide]
